Results as given in ChEMBL document CHEMBL3885861, “Open TG-GATES”.

Species: Rattus norvegicus
Experiment: Open TG-GATES - Regimen: Daily Repeat
Format: toxicity, organism-based, Sprague-Dawley
Set-up: regimen Daily Repeat, gender Male, age 6 weeks
Conditions: in vivo, iv, route intravenous injection; for APTT / Bas / Eos / Fbg / Hb / Ht / Lym / MCH / MCHC / MCV / Mono / Neu / PT / Plat / RBC / Ret / WBC: tissue Blood; for KIDNEY_L / KIDNEY_R / KIDNEY_TOTAL: tissue Kidney; for LIVER: tissue Liver; for A/G / ALP / ALT / AST / BUN / CRE / Ca / Cl / DBIL / GLC / IP / K / LDH / Na / PL / RALB / TBIL / TC / TG / TP / gamma-GTP: tissue Plasma
[1] = 0 mg/kg, 72 h, dose level Control, time 3 day
[2] = 0 mg/kg, […], dose level Control, time 7 day
[3] = 0 mg/kg, […], dose level Control, time 14 day
[4] = 0 mg/kg, […], dose level Control, time 28 day
[5] = 2 mg/kg, 72 h, dose level Low, time 3 day
[6] = 2 mg/kg, […], dose level Low, time 7 day
[7] = 2 mg/kg, […], dose level Low, time 14 day
[8] = 2 mg/kg, […], dose level Low, time 28 day

NCCBr [BROMOETHANAMINE]
TERMINAL_BW [1]: 229.6 g
APTT [1]: 23.7 s
Bas [1]: 0%
Eos [1]: 1%
Fbg [1]: 290.6 mg/dL
Hb [1]: 13.5 g/dL
Ht [1]: 39.3%
Lym [1]: 82.2%
MCH [1]: 21 pg
MCHC [1]: 34.4%
MCV [1]: 61.2 fL
Mono [1]: 2%
Neu [1]: 13.6%
PT [1]: 16.3 s
Plat [1]: 122.8 x10_4/uL
RBC [1]: 641.2 x10_4/ul
Ret [1]: 4.8%
WBC [1]: 116.1 x10_2/uL
KIDNEY_L [1]: 1 g
KIDNEY_R [1]: 1 g
KIDNEY_TOTAL [1]: 2 g
LIVER [1]: 10.3 g
A/G [1]: 1.2
ALP [1]: 1818.6 IU/L
ALT [1]: 45.2 IU/L
AST [1]: 72.2 IU/L
BUN [1]: 16 mg/dL
CRE [1]: 0.2 mg/dL
Ca [1]: 10.7 mg/dL
Cl [1]: 106 meq/L
DBIL [1]: 0 mg/dL
GLC [1]: 181 mg/dL
IP [1]: 7.7 mg/dL
K [1]: 4.7 meq/L
LDH [1]: 170 IU/L
Na [1]: 141.4 meq/L
PL [1]: 132 mg/dL
RALB [1]: 3 g/dL
TBIL [1]: 0.006 mg/dL
TC [1]: 68.4 mg/dL
TG [1]: 76 mg/dL
TP [1]: 5.5 g/dL
gamma-GTP [1]: 1.4 IU/L
TERMINAL_BW [2]: 257 g
TERMINAL_BW [3]: 314.6 g
TERMINAL_BW [4]: 359.9 g
APTT [2]: 23.2 s
Bas [2]: 0%
Eos [2]: 1%
Fbg [2]: 288.8 mg/dL
Hb [2]: 13.7 g/dL
Ht [2]: 39.5%
Lym [2]: 82.8%
MCH [2]: 21 pg
MCHC [2]: 34.6%
MCV [2]: 60.9 fL
Mono [2]: 2.4%
Neu [2]: 13.2%
PT [2]: 15.9 s
Plat [2]: 132.6 x10_4/uL
RBC [2]: 649.4 x10_4/ul
Ret [2]: 4.4%
WBC [2]: 113.7 x10_2/uL
APTT [3]: 23.9 s
Bas [3]: 0%
Eos [3]: 1.2%
Fbg [3]: 301 mg/dL
Hb [3]: 14 g/dL
Ht [3]: 40.1%
Lym [3]: 85%
MCH [3]: 20.6 pg
MCHC [3]: 34.9%
MCV [3]: 59 fL
Mono [3]: 2.2%
Neu [3]: 10.6%
PT [3]: 15.9 s
Plat [3]: 117.9 x10_4/uL
RBC [3]: 680.2 x10_4/ul
Ret [3]: 3.6%
WBC [3]: 89.2 x10_2/uL
APTT [4]: 25.5 s
Bas [4]: 0%
Eos [4]: 1.8%
Fbg [4]: 297 mg/dL
Hb [4]: 15.7 g/dL
Ht [4]: 42.5%
Lym [4]: 84.8%
MCH [4]: 20.6 pg
MCHC [4]: 36.9%
MCV [4]: 55.8 fL
Mono [4]: 2%
Neu [4]: 10.8%
PT [4]: 16.7 s
Plat [4]: 100.6 x10_4/uL
RBC [4]: 762.2 x10_4/ul
Ret [4]: 2.3%
WBC [4]: 126.1 x10_2/uL
KIDNEY_L [2]: 1.1 g
KIDNEY_R [2]: 1.1 g
KIDNEY_TOTAL [2]: 2.2 g
KIDNEY_L [3]: 1.3 g
KIDNEY_R [3]: 1.3 g
KIDNEY_TOTAL [3]: 2.6 g
KIDNEY_L [4]: 1.3 g
KIDNEY_R [4]: 1.4 g
KIDNEY_TOTAL [4]: 2.7 g
LIVER [2]: 11.9 g
LIVER [3]: 13.5 g
LIVER [4]: 13.9 g
A/G [2]: 1.1
ALP [2]: 1565.4 IU/L
ALT [2]: 39 IU/L
AST [2]: 68.2 IU/L
BUN [2]: 17.6 mg/dL
CRE [2]: 0.2 mg/dL
Ca [2]: 10.7 mg/dL
Cl [2]: 104.6 meq/L
DBIL [2]: 0 mg/dL
GLC [2]: 188.2 mg/dL
IP [2]: 6.9 mg/dL
K [2]: 4.7 meq/L
LDH [2]: 190.6 IU/L
Na [2]: 139.8 meq/L
PL [2]: 138.6 mg/dL
RALB [2]: 2.9 g/dL
TBIL [2]: 0.008 mg/dL
TC [2]: 71.2 mg/dL
TG [2]: 94.8 mg/dL
TP [2]: 5.5 g/dL
gamma-GTP [2]: 2.4 IU/L
A/G [3]: 1.1
ALP [3]: 1268.2 IU/L
ALT [3]: 42 IU/L
AST [3]: 72.8 IU/L
BUN [3]: 18.4 mg/dL
CRE [3]: 0.2 mg/dL
Ca [3]: 10.9 mg/dL
Cl [3]: 106 meq/L
DBIL [3]: 0 mg/dL
GLC [3]: 183.8 mg/dL
IP [3]: 7.4 mg/dL
K [3]: 4.5 meq/L
LDH [3]: 176 IU/L
Na [3]: 143.8 meq/L
PL [3]: 139.2 mg/dL
RALB [3]: 3.1 g/dL
TBIL [3]: 0.004 mg/dL
TC [3]: 71.6 mg/dL
TG [3]: 97.8 mg/dL
TP [3]: 5.8 g/dL
gamma-GTP [3]: 2.4 IU/L
A/G [4]: 1.1
ALP [4]: 1244.2 IU/L
ALT [4]: 39.2 IU/L
AST [4]: 67.8 IU/L
BUN [4]: 19.6 mg/dL
CRE [4]: 0.2 mg/dL
Ca [4]: 10.4 mg/dL
Cl [4]: 104.4 meq/L
DBIL [4]: 0 mg/dL
GLC [4]: 203.4 mg/dL
IP [4]: 6.4 mg/dL
K [4]: 4.2 meq/L
LDH [4]: 147 IU/L
Na [4]: 144.2 meq/L
PL [4]: 137 mg/dL
RALB [4]: 3.1 g/dL
TBIL [4]: 0.01 mg/dL
TC [4]: 66 mg/dL
TG [4]: 124.4 mg/dL
TP [4]: 6 g/dL
gamma-GTP [4]: 2.8 IU/L
TERMINAL_BW [5]: 236.2 g
APTT [5]: 22.5 s
Bas [5]: 0%
Eos [5]: 1%
Fbg [5]: 280.4 mg/dL
Hb [5]: 13.2 g/dL
Ht [5]: 38.3%
Lym [5]: 83.2%
MCH [5]: 21.2 pg
MCHC [5]: 34.4%
MCV [5]: 61.6 fL
Mono [5]: 2.8%
Neu [5]: 12%
PT [5]: 16.2 s
Plat [5]: 119.2 x10_4/uL
RBC [5]: 620.8 x10_4/ul
Ret [5]: 4.7%
WBC [5]: 80.2 x10_2/uL
KIDNEY_L [5]: 1 g
KIDNEY_R [5]: 1 g
KIDNEY_TOTAL [5]: 2 g
LIVER [5]: 11.1 g
A/G [5]: 1.3
ALP [5]: 1553.4 IU/L
ALT [5]: 39.6 IU/L
AST [5]: 68.4 IU/L
BUN [5]: 16.2 mg/dL
CRE [5]: 0.2 mg/dL
Ca [5]: 10.8 mg/dL
Cl [5]: 106.4 meq/L
DBIL [5]: 0 mg/dL
GLC [5]: 178.6 mg/dL
IP [5]: 7.2 mg/dL
K [5]: 4.6 meq/L
LDH [5]: 195.6 IU/L
Na [5]: 141.8 meq/L
PL [5]: 143.4 mg/dL
RALB [5]: 3.1 g/dL
TBIL [5]: 0.006 mg/dL
TC [5]: 73.6 mg/dL
TG [5]: 113 mg/dL
TP [5]: 5.6 g/dL
gamma-GTP [5]: 2 IU/L
TERMINAL_BW [6]: 254.2 g
TERMINAL_BW [7]: 302.2 g
TERMINAL_BW [8]: 366.5 g
APTT [6]: 22.7 s
Bas [6]: 0%
Eos [6]: 0.8%
Fbg [6]: 278.8 mg/dL
Hb [6]: 13.5 g/dL
Ht [6]: 39.3%
Lym [6]: 80.6%
MCH [6]: 21 pg
MCHC [6]: 34.4%
MCV [6]: 61 fL
Mono [6]: 2.8%
Neu [6]: 15%
PT [6]: 15.8 s
Plat [6]: 116.6 x10_4/uL
RBC [6]: 644 x10_4/ul
Ret [6]: 3.9%
WBC [6]: 126.7 x10_2/uL
APTT [7]: 23 s
Bas [7]: 0%
Eos [7]: 1%
Fbg [7]: 310.8 mg/dL
Hb [7]: 14.1 g/dL
Ht [7]: 40.3%
Lym [7]: 84.8%
MCH [7]: 20.5 pg
MCHC [7]: 35%
MCV [7]: 58.7 fL
Mono [7]: 2.2%
Neu [7]: 11.4%
PT [7]: 15.8 s
Plat [7]: 116.5 x10_4/uL
RBC [7]: 686.6 x10_4/ul
Ret [7]: 3.3%
WBC [7]: 104.7 x10_2/uL
APTT [8]: 24.7 s
Bas [8]: 0%
Eos [8]: 1%
Fbg [8]: 305.8 mg/dL
Hb [8]: 15.7 g/dL
Ht [8]: 42.4%
Lym [8]: 85.4%
MCH [8]: 20.4 pg
MCHC [8]: 37.1%
MCV [8]: 54.9 fL
Mono [8]: 1.4%
Neu [8]: 10.6%
PT [8]: 16.4 s
Plat [8]: 110.2 x10_4/uL
RBC [8]: 772.8 x10_4/ul
Ret [8]: 1.9%
WBC [8]: 107.8 x10_2/uL
KIDNEY_L [6]: 1.1 g
KIDNEY_R [6]: 1.1 g
KIDNEY_TOTAL [6]: 2.2 g
KIDNEY_L [7]: 1.2 g
KIDNEY_R [7]: 1.2 g
KIDNEY_TOTAL [7]: 2.4 g
KIDNEY_L [8]: 1.4 g
KIDNEY_R [8]: 1.4 g
KIDNEY_TOTAL [8]: 2.8 g
LIVER [6]: 11.6 g
LIVER [7]: 13.5 g
LIVER [8]: 15 g
A/G [6]: 1.2
ALP [6]: 1420.8 IU/L
ALT [6]: 36.2 IU/L
AST [6]: 64 IU/L
BUN [6]: 16.2 mg/dL
CRE [6]: 0.2 mg/dL
Ca [6]: 10.7 mg/dL
Cl [6]: 105.8 meq/L
DBIL [6]: 0 mg/dL
GLC [6]: 181 mg/dL
IP [6]: 7 mg/dL
K [6]: 4.6 meq/L
LDH [6]: 158.8 IU/L
Na [6]: 140.8 meq/L
PL [6]: 141 mg/dL
RALB [6]: 2.9 g/dL
TBIL [6]: 0.01 mg/dL
TC [6]: 75.2 mg/dL
TG [6]: 93 mg/dL
TP [6]: 5.4 g/dL
gamma-GTP [6]: 2 IU/L
A/G [7]: 1.1
ALP [7]: 1559.2 IU/L
ALT [7]: 40.6 IU/L
AST [7]: 67.6 IU/L
BUN [7]: 17.6 mg/dL
CRE [7]: 0.2 mg/dL
Ca [7]: 10.9 mg/dL
Cl [7]: 107 meq/L
DBIL [7]: 0 mg/dL
GLC [7]: 184 mg/dL
IP [7]: 7.1 mg/dL
K [7]: 4.3 meq/L
LDH [7]: 168.6 IU/L
Na [7]: 144.4 meq/L
PL [7]: 149 mg/dL
RALB [7]: 3 g/dL
TBIL [7]: 0 mg/dL
TC [7]: 75.4 mg/dL
TG [7]: 123 mg/dL
TP [7]: 5.7 g/dL
gamma-GTP [7]: 2.6 IU/L
A/G [8]: 1.1
ALP [8]: 1213.2 IU/L
ALT [8]: 40.8 IU/L
AST [8]: 66 IU/L
BUN [8]: 18.4 mg/dL
CRE [8]: 0.2 mg/dL
Ca [8]: 10.4 mg/dL
Cl [8]: 105.6 meq/L
DBIL [8]: 0 mg/dL
GLC [8]: 188.6 mg/dL
IP [8]: 6.6 mg/dL
K [8]: 4.1 meq/L
LDH [8]: 123 IU/L
Na [8]: 145.8 meq/L
PL [8]: 141.8 mg/dL
RALB [8]: 3.2 g/dL
TBIL [8]: 0.01 mg/dL
TC [8]: 67.4 mg/dL
TG [8]: 133.8 mg/dL
TP [8]: 6 g/dL
gamma-GTP [8]: 3 IU/L
